The results in this text go back to patent US12281122B1, “PI3K inhibitors” (Cogent Biosciences, Inc., priority 2023, dated 2025).

pIC50: −log10 of the molar value.

In assay [1] the test system is T47D (PI3Kα-H1047R) cell line. Nature of the assay: HTRF phospho-AKT(S473) cell assay in T47D cells. It counts as cell-based, human. The procedure, abridged:
(§1)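 Cells plated overnight (T47D in RPMI/10% FBS/0.2 units/mL insulin; SKBR3 in McCoy's 5A/10% FBS), then given 12-point 1:3 compound series (top 5 μM T47D, 10 μM SKBR3; ≤0.5% DMSO) for 2 h at 37° C. SKBR3 stimulated with 70 ng/ml PDGF-BB for final 15 min. Lysate pAKT(S473) by HTRF; IC50 calculated.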
Background: In TR-FRET formats the signal depends on donor and acceptor labels being close together.

Assay [2] deals with SKBR3 (PI3Kα-Wild Type) cell line. Nature of the assay: HTRF phospho-AKT(S473) cell assay in SKBR3 cells. Type of assay: cell-based, human. The procedure, abridged:
as §1

Setting [3] is: Homo sapiens; T47D (PI3Kα-H1047R) cells, HTRF phospho-AKT(S473), 2 hours compound incubation.
[4] abbreviates: Homo sapiens, SK-BR-3; SKBR3 (PI3Kα-Wild Type) cells, HTRF phospho-AKT(S473), 2 hours compound incubation, PDGF-BB stimulated.
The mark [5] stands for this setting: Homo sapiens; HTRF phospho-AKT(S473), T47D (PI3Kα-H1047R) cells, 2 hours compound incubation.
Setting [6] is: Homo sapiens, SK-BR-3; HTRF phospho-AKT(S473), SKBR3 (PI3Kα-Wild Type) cells, 2 hours compound incubation, PDGF-BB stimulated.

The term pIC50 denotes the negative decadic logarithm of the IC50, by convention in mol/L. For the compound `Cc1cc([C@@H](C)Nc2ccc(Cl)nc2C(=O)NS(C)(=O)=O)c2nc(N3CCC(n4ncc5cc(N)ccc54)CC3)n(C)c(=O)c2c1` [Compound 278, (R)-3-((1-(2-(4-(5-amino-1H-indazol-1-yl)piperidin-1-yl)-3,6-dimethyl-4-oxo-3,4-dihydroquinazolin-8-yl)ethyl)amino)-6-chloro-N-(methylsulfonyl) picolinamide], the pIC50 in assay [1] (setting [3]) is above 6.60; in assay [2] (setting [4]), 5.30 to 6.00.

As to `Cc1cc([C@@H](C)Nc2ccc(Cl)nc2C(=O)NS(C)(=O)=O)c2nc(N3CCC(c4nnc(C)n4C(F)F)CC3)n(C)c(=O)c2c1` [Compound 725, (R)-6-chloro-3-((1-(2-(4-(4-(difluoromethyl)-5-methyl-4H-1,2,4-triazol-3-yl)piperidin-1-yl)-3,6-dimethyl-4-oxo-3,4-dihydroquinazolin-8-yl)ethyl)amino)-N-(methylsulfonyl) picolinamide], the figures for the pIC50 in assay [1] (setting [5]) and in assay [2] (setting [6]) were 6.30 to 6.60 and 5.30 to 6.00, respectively.

For the compound `Cc1cc([C@@H](C)Nc2ccc(Cl)nc2C(=O)NS(C)(=O)=O)c2nc(N3CCC(c4cc(C)on4)CC3)n(C)c(=O)c2c1` [Compound 571, (R)-6-chloro-3-((1-(3,6-dimethyl-2-(4-(5-methylisoxazol-3-yl)piperidin-1-yl)-4-oxo-3,4-dihydroquinazolin-8-yl)ethyl)amino)-N-(methylsulfonyl) picolinamide], the results for the negative-log IC50 (pIC50) in assay [1] (setting [5]) and in assay [2] (setting [6]) were above 6.60 and 5.30 to 6.00, respectively.

For `CC(=O)N1CCN(c2ccc(-c3nc4c([C@@H](C)Nc5ccc(Cl)nc5C(=O)NS(C)(=O)=O)cc(C)cc4c(=O)n3C)cn2)CC1` [Compound 175, (R)-3-((1-(2-(6-(4-acetylpiperazin-1-yl)pyridin-3-yl)-3,6-dimethyl-4-oxo-3,4-dihydroquinazolin-8-yl)ethyl)amino)-6-chloro-N-(methylsulfonyl) picolinamide], the negative logarithm of the IC50 (pIC50) in assay [1] (setting [3]) is above 6.60; in assay [2] (setting [4]) it was 5.30 to 6.00.

Consider `Cc1cc([C@@H](C)Nc2ccc(Cl)nc2C(=O)NS(C)(=O)=O)c2nc(N3CC[C@@H](Oc4cccnc4)C3)n(C)c(=O)c2c1` [Compound 345, 6-chloro-3-(((R)-1-(3,6-dimethyl-4-oxo-2-((R)-3-(pyridin-3-yloxy)pyrrolidin-1-yl)-3,4-dihydroquinazolin-8-yl)ethyl)amino)-N-(methylsulfonyl) picolinamide], for which the negative logarithm of the IC50 (pIC50) in assay [1] (setting [3]) was above 6.60; in assay [2] (setting [4]), 5.30 to 6.00.

As for `Cc1cc([C@@H](C)Nc2ccc(Cl)nc2C(=O)NS(C)(=O)=O)c2nc(N3CCC(n4cc(F)c(C)n4)CC3)n(C)c(=O)c2c1` [Compound 492, (R)-6-chloro-3-((1-(2-(4-(4-fluoro-3-methyl-1H-pyrazol-1-yl)piperidin-1-yl)-3,6-dimethyl-4-oxo-3,4-dihydroquinazolin-8-yl)ethyl)amino)-N-(methylsulfonyl) picolinamide], the negative-log IC50 (pIC50) in assay [1] (setting [5]) was 6.30 to 6.60; in assay [2] (setting [6]) it was 5.30 to 6.00.

For the compound `Cc1cc([C@@H](C)Nc2ccc(Cl)nc2C(=O)NS(C)(=O)=O)c2nc(N3CCN(c4ccc(C#N)cn4)[C@H](C)C3)n(C)c(=O)c2c1` [Compound 200, 6-chloro-3-(((R)-1-(2-((R)-4-(5-cyanopyridin-2-yl)-3-methylpiperazin-1-yl)-3,6-dimethyl-4-oxo-3,4-dihydroquinazolin-8-yl)ethyl)amino)-N-(methylsulfonyl) picolinamide], the negative logarithm of the IC50 (pIC50) is above 6.60 in assay [1] (setting [3]) and 5.30 to 6.00 in assay [2] (setting [4]).

Consider `Cc1cc([C@@H](C)Nc2ccc(Cl)nc2C(=O)NS(C)(=O)=O)c2nc(N3CCc4nn(C(F)F)cc4C3)n(C)c(=O)c2c1` [Compound 627, (R)-6-chloro-3-((1-(2-(2-(difluoromethyl)-2,4,6,7-tetrahydro-5H-pyrazolo[4,3-c]pyridin-5-yl)-3,6-dimethyl-4-oxo-3,4-dihydroquinazolin-8-yl)ethyl)amino)-N-(methylsulfonyl) picolinamide], for which the pIC50 in assay [1] (setting [5]) is above 6.60; in assay [2] (setting [6]), 5.30 to 6.00.
